US9994590B2, “Substituted [1,2,4]triazolo[1,5-a]pyrazines as phosphodiesterase inhibitors” (Sunovion Pharamaceuticals Inc., priority 2012, dated 2018)
pIC50: −log10 of the molar value.

Molecular target: recombinant human PDE-10 enzyme (human PDE-10A) (Homo sapiens (Human), UniProt Q9Y233)
Assay: human PDE-10 inhibition assay (Molecular Devices IMAP PDE Fluorescence Polarization, enzyme assay IC50)
Assay type: biochemical
Settings: Fluorescein-labeled cAMP/cGMP substrate, 40-minute incubation at 37° C.
Description: In one embodiment, the compounds provided herein were assayed for their ability to inhibit human PDE-10A. In one embodiment, the activities of the compounds were determined using the Molecular Devices IMAP PDE Fluorescence Polarization assay using recombinant human PDE-10 enzyme expressed in a baculoviral system. Briefly, 10 μL of a compound (0.2 nM-20 μM) was added to either a 96-well half area black plate or a 384-well black plate along with 10 μL of Fluorescein-labeled cAMP/cGMP substrate as per manufacturer's instructions and 10 μL of PDE enzyme (activity 0.1 U). Following a 40-minute incubation at 37° C., 60 μL of IMAP binding reagent was added. The plate was then read on a Perkin Elmer Victor (480-535 nm). The data was analyzed using Prism Software (GraphPad Inc, San Diego, Calif.).

Chain of recombinant human PDE-10 enzyme (human PDE-10A) (Q9Y233 whole entry): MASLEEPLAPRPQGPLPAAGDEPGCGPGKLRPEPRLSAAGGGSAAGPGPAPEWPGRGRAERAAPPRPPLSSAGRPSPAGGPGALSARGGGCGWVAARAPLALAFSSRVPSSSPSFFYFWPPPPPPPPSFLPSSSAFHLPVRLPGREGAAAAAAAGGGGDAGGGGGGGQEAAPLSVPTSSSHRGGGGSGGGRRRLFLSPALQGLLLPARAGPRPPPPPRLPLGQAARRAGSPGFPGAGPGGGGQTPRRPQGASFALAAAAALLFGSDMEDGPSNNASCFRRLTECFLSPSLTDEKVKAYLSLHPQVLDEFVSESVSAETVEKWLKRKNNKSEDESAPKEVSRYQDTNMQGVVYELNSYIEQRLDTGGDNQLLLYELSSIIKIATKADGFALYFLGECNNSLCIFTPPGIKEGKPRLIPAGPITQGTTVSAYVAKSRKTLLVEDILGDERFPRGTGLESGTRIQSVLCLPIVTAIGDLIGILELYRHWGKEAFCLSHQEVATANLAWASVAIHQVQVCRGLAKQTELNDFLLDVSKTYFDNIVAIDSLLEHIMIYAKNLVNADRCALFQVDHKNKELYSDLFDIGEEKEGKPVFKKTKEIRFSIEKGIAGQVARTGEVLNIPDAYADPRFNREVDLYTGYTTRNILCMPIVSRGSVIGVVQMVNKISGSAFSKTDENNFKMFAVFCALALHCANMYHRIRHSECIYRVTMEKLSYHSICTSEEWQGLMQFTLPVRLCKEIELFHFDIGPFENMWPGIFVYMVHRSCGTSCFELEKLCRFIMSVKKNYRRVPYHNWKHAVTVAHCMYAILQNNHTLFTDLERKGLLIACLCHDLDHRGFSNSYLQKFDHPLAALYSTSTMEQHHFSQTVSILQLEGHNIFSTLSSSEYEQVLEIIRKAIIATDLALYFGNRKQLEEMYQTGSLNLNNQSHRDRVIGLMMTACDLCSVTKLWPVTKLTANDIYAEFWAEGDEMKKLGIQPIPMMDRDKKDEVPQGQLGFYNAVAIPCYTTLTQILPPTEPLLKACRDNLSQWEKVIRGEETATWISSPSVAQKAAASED

Row | Structure (SMILES) | pIC50
1 | CCOc1cccn2c(C)c(C3CC3c3nc4c(C)ncc(C)n4n3)nc12 (racemic) [Compound 32, (±)-2-(2-(8-ethoxy-3-methylimidazo[1,2-a]pyridin-2-yl)cyclopropyl)-5,8-dimethyl-[1,2,4]triazolo[1,5-a]pyrazine] | 7.00 to 8.00
2 | COc1cc(C)cn2c(C)c(C3CC3c3nc4c(C)ncc(C)n4n3)nc12 (racemic) [Compound 36, (±)-2-(2-(8-methoxy-3,6-dimethylimidazo[1,2-a]pyridin-2-yl)cyclopropyl)-5,8-dimethyl-[1,2,4]triazolo[1,5-a]pyrazine] | 7.00 to 8.00
3 | COc1cc(OC)c2nc(C3CC3c3nc4c(C)ncc(C)n4n3)c(C)n2c1 (racemic) [Compound 37, (±)-2-(2-(6,8-dimethoxy-3-methylimidazo[1,2-a]pyridin-2-yl)cyclopropyl)-5,8-dimethyl-[1,2,4]triazolo[1,5-a]pyrazine] | 7.00 to 8.00
4 | Cc1ncc(C)n2nc(C3CCC3c3nc4c5cccnc5ccc4n3C)nc12 (racemic) [Compound 40, (±)-2-(2-(5,8-dimethyl-[1,2,4]triazolo[1,5-a]pyrazin-2-yl)cyclobutyl)-3-methyl-3H-imidazo[4,5-f]quinoline] | < 6.30
5 | COc1cccn2c(C)c(C3CCC3c3nc4c(C)ncc(C)n4n3)nc12 (racemic) [Compound 42, (±)-2-(2-(8-methoxy-3-methylimidazo[1,2-a]pyridin-2-yl)cyclobutyl)-5,8-dimethyl-[1,2,4]triazolo[1,5-a]pyrazine] | < 6.30
6 | COc1ccn2c(C)c(C3CCC3c3nc4c(C)ncc(C)n4n3)nc2c1 (racemic) [Compound 43, (±)-2-(2-(7-methoxy-3-methylimidazo[1,2-a]pyridin-2-yl)cyclobutyl)-5,8-dimethyl-[1,2,4]triazolo[1,5-a]pyrazine] | < 6.30
7 | Cc1ncc(C)n2cc(C3CC3c3nc4c(C)ncc(C)n4n3)nc12 (racemic) [Compound 45, (±)-2-(2-(5,8-dimethylimidazo[1,2-a]pyrazin-2-yl)cyclopropyl)-5,8-dimethyl-[1,2,4]triazolo[1,5-a]pyrazine] | < 6.30
8 | COc1cccc2c1nc(C1CC1c1nc3c(C)ncc(C)n3n1)n2C (racemic) [Compound 46, (±)-2-(2-(4-methoxy-1-methyl-1H-benzo [d]imidazol-2-yl)cyclopropyl)-5,8-dimethyl-[1,2,4]triazolo[1,5-a]pyrazine] | 6.30 to 7.00
9 | COc1cccc2[nH]c(C3CC3c3nc4c(C)ncc(C)n4n3)nc12 (racemic) [Compound 47, (±)-2-(2-(4-methoxy-1H-benzo[d]imidazol-2-yl)cyclopropyl)-5,8-dimethyl-[1,2,4]triazolo[1,5-a]pyrazine] | 6.30 to 7.00
10 | Fc1ccn2cc(C3CCC3c3cn4cccc(Cl)c4n3)nc2c1 (racemic) [Compound 58, (±)-8-chloro-2-(2-(7-fluoroimidazo[1,2-a]pyridin-2-yl)cyclobutyl)imidazo[1,2-a]pyridine] | < 6.30
11 | COc1cccn2cc(C3CC3c3nc4c(C)ncc(C)n4n3)nc12 (racemic) [Compound 59, (±)-2-(2-(8-methoxyimidazo[1,2-a]pyridin-2-yl)cyclopropyl)-5,8-dimethyl-[1,2,4]triazolo[1,5-a]pyrazine] | 6.30 to 7.00
12 | Cn1c([C@H]2C[C@@H]2c2ccc3ccccc3n2)nc2c3cccnc3ccc21 (single isomer, unassigned) [Compound 21] | 7.00 to 8.00
13 | Cn1c([C@@H]2C[C@H]2c2ccc3ccccc3n2)nc2c3cccnc3ccc21 (single isomer, unassigned) [Compound 22] | 6.30 to 7.00
14 | COc1ccn2cc(C3CC3c3nc4c(C)ncc(C)n4n3)nc2c1C (stereo not shown) [Compound 2, 2-(2-(7-Methoxy-8-methylimidazo[1,2-a]pyridin-2-yl)cyclopropyl)-5,8-dimethyl-[1,2,4]triazolo[1,5-a]pyrazine] | < 6.30
15 | Cc1ccn2c(C)c(C3CC3c3cn4ccc(F)cc4n3)nc2c1 (stereo not shown) [Compound 7, 2-(2-(7-Fluoroimidazo[1,2-a]pyridin-2-yl)cyclopropyl)-3,7-dimethylimidazo[1,2-a]pyridine] | < 6.30
16 | Cc1cccn2cc(C3CC3c3cn4cccc(C)c4n3)nc12 (stereo not shown) [Compound 8, 1,2-Bis(8-methylimidazo[1,2-a]pyridin-2-yl)cyclopropane] | < 6.30
17 | Fc1ccn2cc(C3CC3c3cn4ccc(F)cc4n3)nc2c1 (stereo not shown) [Compound 9] | < 6.30
18 | Fc1cccn2cc(C3CC3c3cn4cccc(F)c4n3)nc12 (stereo not shown) [Compound 10] | < 6.30

Continued, values first:

Row | pIC50 | Structure (SMILES)
19 | 7.00 to 8.00 | Cc1ncc(C)n2nc(C3CC3c3nc4c5cccc(F)c5ccn4c3C)nc12 (racemic) [Compound 30, (±)-2-(2-(5,8-dimethyl-[1,2,4]triazolo[1,5-a]pyrazin-2-yl)cyclopropyl)-7-fluoro-3-methylimidazo[2,1-a]isoquinoline]
20 | 6.30 to 7.00 | Cc1ncc(C)n2nc(C3CC3c3nc4c(OC(F)F)cccn4c3C)nc12 (racemic) [Compound 31, (±)-2-(2-(8-(difluoromethoxy)-3-methylimidazo[1,2-a]pyridin-2-yl)cyclopropyl)-5,8-dimethyl-[1,2,4]triazolo[1,5-a]pyrazine]
21 | 6.30 to 7.00 | Cc1cc2nc(C3CC3c3nc4c(C)ncc(C)n4n3)c(C)n2cc1F (racemic) [Compound 33, (±)-2-(2-(6-fluoro-3,7-dimethylimidazo[1,2-a]pyridin-2-yl)cyclopropyl)-5,8-dimethyl-[1,2,4]triazolo[1,5-a]pyrazine]
22 | 7.00 to 8.00 | COc1cc(F)cn2c(C)c(C3CC3c3nc4c(C)ncc(C)n4n3)nc12 (racemic) [Compound 34, (±)-2-(2-(6-fluoro-8-methoxy-3-methylimidazo[1,2-a]pyridin-2-yl)cyclopropyl)-5,8-dimethyl-[1,2,4]triazolo[1,5-a]pyrazine]
23 | 7.00 to 8.00 | Cc1ncc(C)n2nc(C3CC3c3nc4c5c(ccn4c3C)OCCO5)nc12 (racemic) [Compound 35, (±)-9-(2-(5,8-dimethyl-[1,2,4]triazolo[1,5-a]pyrazin-2-yl)cyclopropyl)-8-methyl-2,3-dihydro-[1,4]dioxino[2,3-c]imidazo[1,2-a]pyridine]
24 | 6.30 to 7.00 | Cc1ncc(C)n2nc(C3CCC3c3cn4ccc5c(c4n3)OCCO5)nc12 (racemic) [Compound 38, (±)-9-(2-(5,8-dimethyl-[1,2,4]triazolo[1,5-a]pyrazin-2-yl)cyclobutyl)-2,3-dihydro-[1,4]dioxino[2,3-c]imidazo[1,2-a]pyridine]
25 | 7.00 to 8.00 | Cc1ncc(C)n2nc(C3CC3c3cn4ccc5c(c4n3)OCCO5)nc12 (racemic) [Compound 39, (±)-9-(2-(5,8-dimethyl-[1,2,4]triazolo[1,5-a]pyrazin-2-yl)cyclopropyl)-2,3-dihydro-[1,4]dioxino[2,3-c]imidazo[1,2-a]pyridine]
26 | 7.00 to 8.00 | COc1cc(C)cn2c(F)c(C3CC3c3nc4c(C)ncc(C)n4n3)nc12 (racemic) [Compound 44, (±)-2-(2-(3-fluoro-8-methoxy-6-methylimidazo[1,2-a]pyridin-2-yl)cyclopropyl)-5,8-dimethyl-[1,2,4]triazolo[1,5-a]pyrazine]
27 | 7.00 to 8.00 | Cc1ncc(C)n2nc(C3CC3c3nc4c5c(ccn4c3F)OCCO5)nc12 (racemic) [Compound 48, (±)-9-(2-(5,8-dimethyl-[1,2,4]triazolo[1,5-a]pyrazin-2-yl)cyclopropyl)-8-fluoro-2,3-dihydro-[1,4]dioxino[2,3-c]imidazo[1,2-a]pyridine]
28 | 7.00 to 8.00 | COc1cccn2c(F)c(C3CC3c3nc4c(C)ncc(C)n4n3)nc12 (racemic) [Compound 55, (±)-2-(2-(3-fluoro-8-methoxyimidazo[1,2-a]pyridin-2-yl)cyclopropyl)-5,8-dimethyl-[1,2,4]triazolo[1,5-a]pyrazine]
29 | 6.30 to 7.00 | Cc1ncc(C)n2nc([C@H]3C[C@@H]3c3nc4c5cccnc5ccn4c3C)nc12 (single isomer, unassigned) [Compound 26]
30 | ≥ 8.00 | Cc1ncc(C)n2nc([C@@H]3C[C@H]3c3nc4c5cccnc5ccn4c3C)nc12 (single isomer, unassigned) [Compound 27]
31 | < 6.30 | COc1cccn2c(F)c([C@@H]3C[C@H]3c3nc4c(C)ncc(C)n4n3)nc12 (single isomer, unassigned) [Compound 56, 2-(2-(3-fluoro-8-methoxyimidazo[1,2-a]pyridin-2-yl)cyclopropyl)-5,8-dimethyl-[1,2,4]triazolo[1,5-a]pyrazine]
32 | 7.00 to 8.00 | COc1cccn2c(F)c([C@@H]3C[C@H]3c3nc4c(C)ncc(C)n4n3)nc12 (single isomer, unassigned) [Compound 57, 2-(2-(3-fluoro-8-methoxyimidazo[1,2-a]pyridin-2-yl)cyclopropyl)-5,8-dimethyl-[1,2,4]triazolo[1,5-a]pyrazine]
33 | ≥ 8.00 | Cc1ncc(C)n2nc(C3CC3c3nc4c5cccnc5ccn4c3C)nc12 (stereo not shown) [Compound 1, 2-(2-(5,8-Dimethyl-[1,2,4]triazolo[1,5-a]pyrazin-2-yl)cyclopropyl)-3-methylimidazo[2,1-f][1,6]naphthyridine]
34 | ≥ 8.00 | Cc1ncc(C)n2nc(C3CC3c3nc4c5ccccc5ccn4c3C)nc12 (stereo not shown) [Compound 3]
35 | < 6.30 | Cc1ncc(C)n2nc(C3CC3c3nc4cc(F)ccn4c3C)nc12 (stereo not shown) [Compound 4]
36 | 7.00 to 8.00 | Cc1ncc(C)n2nc(C3CC3c3nc4c(C5CC5)cccn4c3C)nc12 (stereo not shown) [Compound 5, 2-(2-(8-Cyclopropyl-3-methylimidazo[1,2-a]pyridin-2-yl)cyclopropyl)-5,8-dimethyl-[1,2,4]triazolo[1,5-a]pyrazine]
37 | 6.30 to 7.00 | Cc1ccn2c(C)c(C3CC3c3nc4c(C)ncc(C)n4n3)nc2c1 (stereo not shown) [Compound 6, 2-(2-(3,7-Dimethylimidazo[1,2-a]pyridin-2-yl)cyclopropyl)-5,8-dimethyl-[1,2,4]triazolo[1,5-a]pyrazine]
